Results as given in the Kinase Knowledgebase extract (Sharma et al. 2016).

How the values were obtained:
EGFR (murine) [1] = biological target: EGFR (murine) (UniProt P00533); conditions: her 14
EGFR (murine) [2] = biological target: EGFR (murine) (UniProt P00533); conditions: for IC50: her 14
EGFR = EGFR (UniProt P00533)
Chain of EGFR (P00533 whole entry, looked up): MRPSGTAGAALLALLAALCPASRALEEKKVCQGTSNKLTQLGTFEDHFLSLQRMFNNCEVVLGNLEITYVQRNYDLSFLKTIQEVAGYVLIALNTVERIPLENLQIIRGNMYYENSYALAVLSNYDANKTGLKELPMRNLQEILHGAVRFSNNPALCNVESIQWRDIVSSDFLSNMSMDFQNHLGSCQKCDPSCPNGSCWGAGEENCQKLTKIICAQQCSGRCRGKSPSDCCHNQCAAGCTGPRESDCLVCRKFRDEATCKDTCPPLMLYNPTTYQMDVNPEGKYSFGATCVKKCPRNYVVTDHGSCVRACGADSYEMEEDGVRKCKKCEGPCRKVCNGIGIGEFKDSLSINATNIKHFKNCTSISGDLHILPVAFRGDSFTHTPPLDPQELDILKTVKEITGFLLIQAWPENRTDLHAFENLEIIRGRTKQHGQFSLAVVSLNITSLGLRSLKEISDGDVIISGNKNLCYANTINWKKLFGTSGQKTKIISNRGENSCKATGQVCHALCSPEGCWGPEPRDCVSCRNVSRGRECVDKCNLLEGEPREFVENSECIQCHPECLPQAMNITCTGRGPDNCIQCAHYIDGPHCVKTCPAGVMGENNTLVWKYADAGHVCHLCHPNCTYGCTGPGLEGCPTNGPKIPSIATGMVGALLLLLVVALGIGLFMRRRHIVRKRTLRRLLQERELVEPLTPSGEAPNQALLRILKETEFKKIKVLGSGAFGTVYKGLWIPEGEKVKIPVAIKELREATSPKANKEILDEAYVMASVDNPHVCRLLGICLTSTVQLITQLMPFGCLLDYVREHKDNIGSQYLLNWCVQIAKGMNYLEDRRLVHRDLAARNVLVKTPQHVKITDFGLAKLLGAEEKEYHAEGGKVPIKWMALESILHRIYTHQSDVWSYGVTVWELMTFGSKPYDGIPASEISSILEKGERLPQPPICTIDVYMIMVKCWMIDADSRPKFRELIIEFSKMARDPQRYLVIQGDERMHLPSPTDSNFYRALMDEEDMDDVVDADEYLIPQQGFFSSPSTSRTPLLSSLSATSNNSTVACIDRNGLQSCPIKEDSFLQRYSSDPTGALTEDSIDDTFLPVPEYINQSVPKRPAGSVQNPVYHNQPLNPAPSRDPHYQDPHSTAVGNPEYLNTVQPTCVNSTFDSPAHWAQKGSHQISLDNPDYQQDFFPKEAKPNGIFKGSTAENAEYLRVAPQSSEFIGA

Chain of EGFR (murine) (P00533 whole entry, looked up): as above

| Compound | IC50 (EGFR (murine) [1]) | IC50 (EGFR (murine) [2]) | IC50 (EGFR) | inhibition (EGFR (murine) [2]; her 14, dose or concentration not given here) |
| --- | --- | --- | --- | --- |
| N#CC(C#N)=C1C(=O)Nc2cc(O)c(O)cc21 | > 16 µM |  |  |  |
| N#CC(C#N)=Cc1ccc2[nH]ccc2c1 | > 100 µM |  |  |  |
| N#C/C(=C\c1ccc(O)c(O)c1)C(=O)c1ccccc1 | 15 µM | 120 µM |  |  |
| N#C/C(=C\c1ccc(O)c(O)c1)C(=O)NCCCc1ccccc1 | 2.5 µM | 25 µM |  |  |
| N#C/C(=C\c1ccc(O)c(O)c1)C(=O)N1CCc2ccccc21 | 25 µM | 100 µM |  |  |
| N#C/C(=C\c1ccc(O)c(O)c1)C(=O)c1ccc(F)cc1 | 20 µM | 80 µM |  |  |
| N#C/C(=C\c1ccc(O)c(O)c1)C(=O)c1ccc([N+](=O)[O-])cc1 | 20 µM | < 20 µM |  |  |
| N#C/C(=C\c1ccc(O)c(O)c1)C(N)=O | 15 µM | 60 µM | 10 µM |  |
| N#C/C(=C\c1ccc(O)c(O)c1)C(=O)Nc1ccccc1Cl | 35 µM | 12 µM |  |  |
| N#C/C(=C/c1ccc(O)c(O)c1)C(=O)NCc1ccccc1 | 3.5 µM |  |  |  |
| N#C/C(=C/c1ccc(O)c(O)c1)C(=O)NC1CCCCC1 | 15 µM |  |  |  |
| Cc1ccc(C(=O)/C(C#N)=C/c2ccc(O)c(O)c2)cc1 | 7 µM | 100 µM |  |  |
| N#CC(C#N)=Cc1cc[n+]([O-])cc1 |  |  | 1300 µM |  |
| N#C/C(=C\c1ccc(O)c(O)c1)C(=O)NC1CCCCC1 |  | 50 µM |  |  |
| N#CC(C#N)=C1C(=O)Nc2ccc([N+](=O)[O-])cc21 | 20 µM |  |  |  |
| COc1cc(C=C(C#N)C#N)ccc1O |  |  | 200 µM |  |
| Cc1cccc(C)c1NC(=O)/C(C#N)=C/c1ccc(O)c(O)c1 |  | > 20 µM |  |  |
| N#C/C(=C\c1ccc(O)c(O)c1)C(=O)NCCCCc1ccccc1 | 3 µM | 10 µM |  |  |
| COc1cc2c(cc1O)NC(=O)C2=C(C#N)C#N | ≥ 120 µM |  |  |  |
| CC(NC(=O)/C(C#N)=C/c1ccc(O)c(O)c1)c1ccccc1 (stereo not given) | 3.5 µM | 10 µM |  | 0.88% |
| N#CC(C#N)=Cc1cccc(O)c1 |  |  | 375 µM |  |
| N#CC(C#N)=C1CCc2cc(O)c(O)cc21 | 30 µM | > 150 µM |  |  |
